Laboratory results taken from PubChem BioAssay (NCI).
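Step 1: Grow cells in 96-well plates. Step 2: Expose to compound for 48 hours at 5 concentrations. Step 3: Interpolate endpoints linearly; if unreached, use highest concentration. Definition used: TGI = concentration required for complete inhibition of growth.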

What was measured:
Test in all cases: DTP human tumour cell line panel, 48 h
[1] = test system: HS 578T breast
[2] = test system: SK-OV-3 ovarian
[3] = test system: M14 melanoma
[4] = test system: MALME-3M melanoma
[5] = test system: MOLT-4 leukemia
[6] = test system: CCRF-CEM leukemia
[7] = test system: NCI/ADR-RES ovarian
[8] = test system: RXF 393 renal
[9] = test system: EKVX NSCLC
[10] = test system: HCC-2998 colon

| SMILES | TGI [1] [µM] | TGI [2] [µM] | TGI [3] [µM] | TGI [4] [µM] | TGI [5] [µM] | TGI [6] [µM] | TGI [7] [µM] | TGI [8] [µM] | TGI [9] [µM] | TGI [10] [µM] |
| --- | --- | --- | --- | --- | --- | --- | --- | --- | --- | --- |
| COc1ccc(/C=C2\C=Cc3ccccc32)cc1OC | 89.6 | > 100 | > 100 | > 100 | > 100 | > 100 | > 100 | > 100 | > 100 | > 100 |
| Cc1[nH]c2ncn3nc(C(Cl)(Cl)Cl)nc3c2c1Cc1ccccc1 | > 100 | > 100 | > 100 | > 100 | > 100 | > 100 | > 100 | > 100 | > 100 | > 100 |
| S=c1ssc2c3ssc(=S)c3n(Cc3ccccc3)c12 | > 100 | > 100 | > 100 | > 100 | 38.9 | 58.2 | > 100 | 34.3 | > 100 | > 100 |
| CCOC(=O)c1nc2cc(N3CCOCC3)c(F)cc2[nH]c1=O | > 100 | > 100 | > 100 | > 100 | > 100 | > 100 | > 100 | > 100 | > 100 | > 100 |
| CN1CCCN2CCN(C)CCN(CC1)CC2 | > 100 | > 100 | > 100 | > 100 | > 100 | > 100 | > 100 | > 100 | > 100 | > 100 |
| CCOC(=O)CC(=O)NC1CC2CCC1(C)C2(C)C (stereo not given) | > 100 | > 100 | > 100 | > 100 | > 100 | > 100 | > 100 | > 100 | > 100 | > 100 |
| CSC(SC)=C1CC(=O)Nc2ccccc2C1=O | > 100 | > 100 | > 100 | > 100 | 96 | 52.7 | > 100 | 52.8 | > 100 | > 100 |
| Clc1ccc(N=C/C=C/Nc2ccc(Cl)cn2)nc1 | 23.3 | 36.6 | 30.2 | 31.2 | 19.4 | 9.41 | 32.6 | 34.9 | 13.9 | 0.922 |
| O=C(NN=C1CCN(Cc2ccccc2)CC1)C(O)(c1ccccc1)c1ccccc1 | > 100 | > 100 | > 100 | > 100 | > 100 | > 100 | > 100 | > 100 | > 100 | > 100 |
| CC1=C(/C=C/C(C)=C/C=C/C(C)=C/C(=O)OCC2OC(n3cc(F)c(=O)[nH]c3=O)CC2OC(=O)/C=C(C)/C=C/C=C(C)/C=C/C2=C(C)CCCC2(C)C)C(C)(C)CCC1 (stereo not given) | > 68.8 | > 100 | > 48.3 | > 100 | > 100 | > 28.8 | > 100 | > 100 | > 100 | 15 |
| Cc1ccc(/C=C2\CN(C)CC3=C2OC(N)=C(C#N)C3c2ccc(C)cc2)cc1 (stereo not given) | > 100 | 35.3 | 43.9 | 37.2 | > 51 | 22 | > 100 | 28.3 | 56.5 | 37.2 |
| Clc1ccc(-c2nn3c(CCCCCCCCc4nnc5sc(-c6ccc(Cl)cc6)nn45)nnc3s2)cc1 | > 100 | > 90.4 | 67.5 | > 90.4 | 33.2 | 60.3 | > 87.2 | > 62.4 | > 83 | > 100 |
| Cc1ccc(Nc2nc(=S)[nH]c3[nH]ncc23)cc1 | > 100 | > 100 | > 100 | > 100 | > 100 | > 100 | > 100 | > 100 | > 100 | > 100 |
| Cn1cc(C(=O)c2nccc3c2cnc2ccccc23)ccc1=O | > 100 | > 100 | > 100 | > 100 | > 100 | > 100 | > 100 | 8.62 | > 100 | > 100 |
| O=C(c1ccccc1)c1ccc(C(c2c(O)c3ccccc3oc2=O)c2c(O)c3ccccc3oc2=O)cc1 | 64.5 | 38.4 | 63.3 | 37.6 | 53.9 | > 81.2 | 62.5 | > 69.2 | 72.3 | 50.4 |
| CCN(CC)c1ccc(/C=C(\C#N)c2nc(N)nc(N3N=C(C)CC3(C)C)n2)cc1 | 11.4 | 19.9 | > 45.5 | 41 | > 100 | > 100 | > 49.4 | 23.7 | > 76.2 | 79.1 |
| C=C(O)c1ccccc1C#Cc1ccccc1C(=O)OC | > 10 | > 10 | > 10 | > 10 | > 10 | > 10 | > 10 | > 10 | > 10 | > 10 |
| COc1ccc(OC)c(C2CCc3nc4nc(N)nc(N)c4cc3C2)c1 (stereo not given) | 16.1 | 15.3 | 3.44 | 3.57 | 5.3 | 9.44 | > 100 | 7.45 | 28.1 | 3.16 |
| CCN1CC2=C(N=c3s/c(=C\c4ccc(Cl)cc4)c(=O)n3C2c2ccc(Cl)cc2)/C(=C/c2ccc(Cl)cc2)C1 (stereo not given) | > 100 | > 100 | > 100 | > 100 | > 100 | > 100 | > 100 | 15.4 | > 100 | > 100 |
| C/C(=N/NC(=S)Nc1ccccc1Cl)c1ccccn1 | 40.2 | 13.7 | 3.42 | 13 | 3.62 | 1.1 | 6.53 | 11.6 | 7.15 | 18.1 |
| Cc1ccc(S(=O)ON2CCC(C(=O)O)(c3ccccc3)CC2)cc1 (stereo not given) | > 100 | > 100 | > 100 | > 100 | > 100 | > 100 | > 100 | > 100 | > 100 | > 100 |
| Brc1cccc(/C=C/CN2CCN(CCOC(c3ccccc3)c3ccccc3)CC2)c1 | 52 | 34.9 | 27.1 | 31.5 | 31.1 | 29.5 | 30.4 | 24.6 | 40.8 | 21.3 |
| O=c1c2ccccc2nc2n1NC(c1c(Cl)cccc1Cl)N2c1cccc(Cl)c1 (stereo not given) | > 100 | 6.81 | 66.6 | 29.7 | > 100 | > 100 | 68.5 | 18.5 | > 100 | > 100 |
| CC(C)(C)OC(=O)[N+](=N)C(=O)C1CCC(=O)N1C(=O)OCc1ccccc1 (stereo not given) | > 100 | > 100 | > 100 | > 100 | > 100 | > 100 | > 100 | > 100 | > 100 | > 100 |
| CC(=O)N=C(N=Nc1c(O)[nH]c2ccc(C)cc12)NC(C)=O | > 100 | > 100 | > 100 | > 100 | > 100 | > 100 | > 100 | > 100 | > 100 | > 100 |
